Measurements from paper PMC5291163 (Journal of the American Chemical Society, 2016).
Where two headings read alike, the source gives them in different places. Square brackets hold non-standard residues; d marks the D form. Peptide text beside a SMILES is read from it. * marks the point of attachment. Pentanoyl(5-PPh3+) = O=C(CCCC[P+](c1ccccc1)(c1ccccc1)c1ccccc1)*; d(pY) = N[C@H](Cc1ccc(OP(=O)(O)O)cc1)C(=O)O; pY = N[C@@H](Cc1ccc(OP(=O)(O)O)cc1)C(=O)O; NBD = O=[N+]([O-])c1ccc(*)c2nonc12; Cbz = O=C(OCc1ccccc1)*; βAla = NCCC(=O)O; CH2F = FC*

Experiments:
[1] = TEM of nanostructures before and after addition of ALP; format: physicochemical; conditions: 100 µM, before ALP
[2] = test system: alkaline phosphatase (ALP); conditions: substrate 0.1 wt%, ALP 0.1 U/mL
[3] = ALP 1 U/mL, 24 h, PBS buffer pH 7.4
HS5 cells = conditions: 100 µM
active caspase3 = conditions: Saos2 cells, 50 µM, first 3 h of treatment

| SMILES | diameter of uniform nanoparticles (TEM) [1] [nm] | percentage of enzymatic dephosphorylation after 24 h [2] | t1/2 of ALP catalyzed dephosphorylation [2] [min] | increase of the SLS signal after addition of ALP ([3]; 25 µM precursor) [fold] | increase of the SLS signal after addition of ALP ([3]; 50 µM precursor) [fold] | increase of the SLS signal after addition of ALP ([3]; 100 µM precursor) [fold] | increase of the SLS signal after addition of ALP ([3]; 200 µM precursor) [fold] | cytotoxicity against HS5 cells (HS5 cells) | expression level of active caspase3 relative to untreated cells (active caspase3) | cell viability of unstimulated Saos2 (Saos2 cells; 50 µM, 48h) [%] | toxicity on Saos2 cells of the inhibitor itself (Saos2 cells; 45 µM) |
| --- | --- | --- | --- | --- | --- | --- | --- | --- | --- | --- | --- |
| O=C(CCCC[P+](c1ccccc1)(c1ccccc1)c1ccccc1)NCCCC[C@@H](NC(=O)[C@@H](Cc1ccc(OP(=O)(O)O)cc1)NC(=O)[C@@H](Cc1ccccc1)NC(=O)[C@@H](Cc1ccccc1)NC(=O)CCNc1ccc([N+](=O)[O-])c2nonc12)C(=O)O [D-1P] ({NBD-βAla}-[dF][dF][d(pY)][dK](Pentanoyl(5-PPh3+))-OH) | 25 ±2 | about 90% | 33 | 43 | 10 | 8 | 4 | almost innocuous | about 1.7 fold | – | – |
| O=C(CCCC[P+](c1ccccc1)(c1ccccc1)c1ccccc1)NCCCC[C@H](NC(=O)[C@H](Cc1ccc(OP(=O)(O)O)cc1)NC(=O)[C@H](Cc1ccccc1)NC(=O)[C@H](Cc1ccccc1)NC(=O)CCNc1ccc([N+](=O)[O-])c2nonc12)C(=O)O [L-1P] ({NBD-βAla}-FF[pY]K(Pentanoyl(5-PPh3+))-OH) | – | ~80% | 68.4 | 120 | 48 | 18 | 14 | almost innocuous | changes little | 71.7 | – |
| COC(=O)C[C@H](NC(=O)[C@H](C)NC(=O)[C@@H](NC(=O)OCc1ccccc1)C(C)C)C(=O)CF [zVAD-fmk, reference compound] (Cbz-Val-Ala-Asp(OMe)-CH2F) | – | – | – | – | – | – | – | – | – | – | no toxicity |
